Patent US7718618B2, “Human cathelicidin antimicrobial peptides” (priority 2003, dated 2010)
Ends that are not written are not given here.

Key:
S. aureus mprF = experiment: LL-37 incubated in sweat, radial diffusion assay against S. aureus mprF; assay type: cell-based, Staphylococcus aureus; details: protease inhibitor added during incubation, 37° C., 6 hr
Protocol: Antibacterial activity evaluated by radial diffusion assay against S. aureus mprF after incubation of LL-37 (32 uM) in sweat. a) Increase in the inhibition zone is seen when incubated in sweat but not 10 mM PBS or distilled water (DW). b) Diameters of inhibition zone after 6 hr incubation at 37° C. in (SWT buffer; sweat buffer salts alone), (PBS), (D.W.; distilled water), (SWT; sterile filtered human sweat at 37° C.), (SWT at 4° C.), (SWT with PI, with protease inhibitor cocktail). c) Action of specific protease inhibitors on gain of antimicrobial activity. […] N.E.I.=neutrophil elastase inhibitor, L.E.I.=leukocyte elastase inhibitor. Data are triplicate determinations±SEM from single experiment representative of 3.
Sweat collection and processing. Sweat was collected on paper tissues (Kimwipes, Kimberly-Clark, GA) from healthy volunteers after exercise. After collection, 20 ml of sweat was centrifuged at 2000 g for 15 min. at 4° C., filtered through a […] (Acrodisc syringe filter, […], low protein binding, Fisher scientific, Tustin, Calif.), and frozen at −80° C. […] Protein concentrations were evaluated by BCA assay (protein assay reagent, Pierce, Rockford, Ill.) or Bradford protein assay (Bio-Rad, Hercules, Calif.) according to manufacture's instructions. […]

human erythrocytes = experiment: Hemolysis assay on human whole blood; assay type: cell-based; details: peptide at 100 μM; relative to 0.1% Triton X-100
Protocol: Hemolysis Assay. Hemolytic activity was determined on human whole blood. Freshly obtained whole blood was washed 3× in PBS and resuspended in PBS at its original volume containing peptides at indicated concentrations. Samples were incubated at 37° C. for 1.5 to 3 h, and hemolysis determined by centrifuging at 300 g and measurement of the absorbance of the supernatant at 578 nm. Hemolytic activity of each peptide was expressed as the percentage of total hemoglobin released compared to that released by incubating with 0.1% Triton X-100.

[1] = system: Staphylococcus aureus mprF; experiment: Radial diffusion assay against S. aureus mprF; assay type: cell-based
Protocol: Antimicrobial assays. For screening of antimicrobial activity of HPLC fractions, radial diffusion assay was used. Lyophilized HPLC fractions were dissolved in DW (GibcoBRL, Grand Island, N.Y.), and tested against Staphylococcus aureus mprF. Thin plates (1 mm) of 1% agarose in 0.5% tryptone containing approximately 1×10^6 cells/ml of S. aureus mprF were used. 1 mm wells were punched in the plates and […] of samples dissolved in tissue culture grade sterile water were loaded in each well.
(§1) As a positive control, synthetic LL-37 was applied to separate wells. After incubation at 37° C. overnight, the inhibition zones were recorded by CCD camera and diameters measured. To evaluate antimicrobial activity against wild-type S. aureus (clinical isolate), and enteroinvasive E. coli 029, both radial diffusion and solution killing assays were done. Radial diffusion assays were done as described for S. aureus mprF. Solution killing was done in 10% TSB in 10 mM PB (TSB=30 gm/L Tryptic Soy Broth, Sigma, St Louis Mo.; 20×PB=27.6 g/L NaH2PO4-H2O, 53.65 g/L Na2HPO4-7H2O, pH 7.4). Bacteria in log-phase growth were suspended to 1×10^6 cells/ml, peptide added and incubated at 37° C. for 2 hr. Bacteria were then plated on TSB agar (TSB, Bactoagar 13 g/L, Becton Dickinson, Sparks Md.) for direct colony count and determination of CFU.

[2] = system: wild-type S. aureus (clinical isolate); experiment: Radial diffusion assay against wild-type S. aureus; assay type: cell-based, Staphylococcus aureus
Protocol: as §1

[3] = system: enteroinvasive E. coli 029; experiment: Radial diffusion assay against E. coli O29; assay type: cell-based
Protocol: as §1

[4] = system: Group A Streptococcus (NZ131); assay type: cell-based
Protocol: as §1
(§2) Activity against Group A Streptococcus (NZ131) was done only in solution assay as described. To evaluate antimicrobial activity in high salt conditions, solution assay was done in 10% TSB/10 mM PBS with several salt concentrations (concentration of NaCl; 10, 50, 100, 150, 300, 500 mM). Action against the C. albicans was determined in Dixon medium (0.6% Peptone, 4% Malt Extract, 1% Glucose, 0.1% Ox Bile, 1% Tween-80) in sterile 96-well microtiter plates (Corning Inc., Corning, N.Y.) at a final volume of […]. The assay mixtures contained 1-2.5×10^4 […] freshly grown Candida, 20% Dixon medium, 0.6 mM phosphate buffer pH 7, and […] chloramphenicol. Microtiter plates were incubated at 37° C. for 24 h with peptides, then plated on Dixon agar to determine the MFC (minimum fungicide concentration).

C. albicans ATCC 14053 = assay type: cell-based, Candida albicans
Protocol: as §2

Staphylococcus aureus = experiment: S. aureus growth inhibition (turbidity OD600) with or without carbonate; assay type: cell-based
Protocol: Carbonate was identified as the antimicrobial enhancing factor in mammalian tissue culture media via serial deletion of Minimal Essential Media (MEM) components. Staphylococcus aureus was cultured in 20% Tryptic Soy Broth (TSB), 10% Fetal Bovine Serum (FBS) and 70% of various media or media components with, or without, 32 μM LL-37 to assess which components could increase antimicrobial activity. MEM buffers are 2200 mg/L NaHCO3, 140 mg/L NaH2PO4 and 6800 mg/L NaCl. MEM salts are 200 mg/L CaCl2, 400 mg/L KCl, 98 mg/L MgSO4. All solutions were adjusted to pH 7.4. Bacterial growth was measured as the change in turbidity at OD600 and percent inhibition was determined by comparing bacterial growth in the presence of peptide to that in the absence of peptide.
Inhibition of S. aureus was measured in 20% TSB, 10% FBS 1 mM NaH2PO4, 150 mM NaCl, with either 50 mM NaHCO3 or […] Glycine buffer at various pH.
Inhibition of Staph aureus growth in the presence of various concentrations of human (LL-37), murine (CRAMP) and porcine (PR-39). Cathelicidin antimicrobial peptides was measured in 20% TSB, 1 mM NaH2PO4, with, or without, […] NaHCO3 at pH 7.4.
The growth of S. aureus in the presence, or absence, of 32 μM LL-37 was measured in 20% TSB, 10% FBS, 1 mM NaH2PO4, 150 mM NaCl, and various concentrations of NaHCO3, all at pH 7.4. […] High concentrations of NaHCO3 retarded the growth of S. aureus. […]

E. coli = E. coli susceptibility to CRAMP with or without NaHCO3; assay type: cell-based
Group B Strep (GBS) = experiment: Group B Strep susceptibility to CRAMP; assay type: cell-based; details: 16 μM peptide, without NaHCO3
Salmonella = Salmonella susceptibility to CRAMP; assay type: cell-based; details: 16 μM peptide, without NaHCO3
antigen presentation = experiment: Antigen presentation in vitro; assay type: cell-based
S. aureus = experiment: Release of cytoplasmic beta-galactosidase from S. aureus (membrane disruption); assay type: cell-based; details: with versus without NaHCO3
Description: Release of cytoplasmic expressed beta-galactosidase was measure from bacteria with and without the addition of NaHCO3.

[5] = 16 μM peptide in presence of NaHCO3
[6] = 16 μM peptide without SOM NaHCO3

Row | Compound | Radial Diffusion Assay S. aureus MprF, minimal inhibitory concentration (MIC) [1] [μm] | Radial Diffusion Assay S. aureus (wt), minimal inhibitory concentration (MIC) [2] [μm] | Radial Diffusion Assay E. coli (O29), minimal inhibitory concentration (MIC) [3] [μm] | Liquid Assay GAS (NZ131), minimal concentration required to kill [4] [μm] | Liquid Assay C. albicans ATCC 14053, minimal concentration required to kill (C. albicans ATCC 14053) [μm] | other results
1 | NCCc1ccc(S(=O)(=O)F)cc1 [AEBSF] |  |  |  |  |  | blocking of the increase in antimicrobial activity of LL-37 in sweat (S. aureus mprF): most effective in blocking the increase in antimicrobial activity
2 | CC[C@H](C)[C@H](NC(=O)[C@H](CCCCN)NC(=O)[C@H](CCC(=O)O)NC(=O)[C@H](CCCCN)NC(=O)[C@H](CO)NC(=O)[C@H](CCCCN)NC(=O)[C@H](CCCNC(=N)N)NC(=O)[C@H](Cc1ccccc1)NC(=O)[C@H](Cc1ccccc1)NC(=O)[C@H](CC(=O)O)NC(=O)CNC(=O)[C@H](CC(C)C)NC(=O)[C@@H](N)CC(C)C)C(=O)NCC(=O)N[C@@H](CCCCN)C(=O)N[C@@H](CCC(=O)O)C(=O)N[C@@H](Cc1ccccc1)C(=O)N[C@@H](CCCCN)C(=O)N[C@@H](CCCNC(=N)N)C(=O)N[C@H](C(=O)N[C@H](C(=O)N[C@@H](CCC(N)=O)C(=O)N[C@@H](CCCNC(=N)N)C(=O)N[C@H](C(=O)N[C@@H](CCCCN)C(=O)N[C@@H](CC(=O)O)C(=O)N[C@@H](Cc1ccccc1)C(=O)N[C@@H](CC(C)C)C(=O)N[C@@H](CCCNC(=N)N)C(=O)N[C@@H](CC(N)=O)C(=O)N[C@@H](CC(C)C)C(=O)N[C@H](C(=O)N1CCC[C@H]1C(=O)N[C@@H](CCCNC(=N)N)C(=O)N[C@H](C(=O)N[C@@H](CCC(=O)O)C(=O)N[C@@H](CO)C(=O)O)[C@@H](C)O)C(C)C)[C@@H](C)CC)C(C)C)[C@@H](C)CC [LL-37] |  |  |  |  |  | % hemolysis (human erythrocytes): 9%
3 | SSLLEKGLDGAKKAVGGLGKLGKDAVEDLESVGKGAVHDVKDVLDSV (listed as Homo sapiens) [DCD, dermcidin antimicrobial peptide of human sweat, reference compound] | >64 | >64 | >64 | >64 | >32 | 
4 | CRAMP |  |  |  |  |  | susceptibility of S. aureus (Staphylococcus aureus; [5]): became susceptible; susceptibility of S. aureus (Staphylococcus aureus; [6]): resistant; susceptibility of E. coli (E. coli; [5]): became susceptible; susceptibility of E. coli (E. coli; [6]): resistant; susceptibility of Group B Strep (GBS) (Group B Strep (GBS)): susceptible even without NaHCO3; susceptibility of Salmonella (Salmonella): susceptible even without NaHCO3; antigen presentation in vitro (antigen presentation): inhibits antigen presentation in vitro
5 | H-RKSKEKIGKEFKRIVQRIKDFLRNLVPRTES-OH [RK-31] | 8 | 16 | 8 | 8 | 4 | action against wild-type S. aureus compared to LL-37 [2]: greatly increased action; action against E. coli compared to LL-37 [3]: greatly increased action
6 | Polymyxin B |  |  |  |  |  | leakage of cytoplasmic protein (beta-galactosidase) (S. aureus): induces greater leakage of cytoplasmic protein with carbonate
7 | KRIVQRIKDFLRNLVPRTES [KR-20] | 16 | >64 | >64 | 4 | 10 | 
8 | Aprotinin |  |  |  |  |  | blocking of the increase in antimicrobial activity of LL-37 in sweat (S. aureus mprF): most effective in blocking the increase in antimicrobial activity
9 | H-KSKEKIGKEFKRIVQRIKDFLRNLVPRTES-OH [KS-30] | 8 | 16 | 8 | 4 | 2 | action against wild-type S. aureus compared to LL-37 [2]: greatly increased action; action against E. coli compared to LL-37 [3]: greatly increased action
